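How tested: cells in 96-well plates exposed to compound for 48 hours at five concentrations. Here, GI50 denotes the concentration required for 50% inhibition of growth.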 Activity calls are given as the source filed them. Cut-off read from the data, not from the text of the source: active = GI50 up to about 1.1 µM and inactive = higher.
Experiments:
Assay in all cases: DTP human tumour cell line panel, 48 h
786-0 = system: 786-0
A498 = system: A498
A549 = system: A549
ACHN = system: ACHN
CAKI-1 = system: CAKI-1
CCRF-CEM = system: CCRF-CEM
COLO 205 = system: COLO 205
DLD-1 = system: DLD-1
DMS-114 = system: DMS-114
DMS-273 = system: DMS-273
DU-145 = system: DU-145
EKVX = system: EKVX
HCC 2998 = system: HCC 2998
HCT-116 = system: HCT-116
HCT-15 = system: HCT-15
HOP-18 = system: HOP-18
HOP-62 = system: HOP-62
HOP-92 = system: HOP-92
HT-29 = system: HT-29
Hs-578T = system: Hs-578T
IGROV-1 = system: IGROV-1
K562 = system: K562
KM-20L2 = system: KM-20L2
KM12 = system: KM12
LOX IMVI = system: LOX IMVI
LXFL 529 = system: LXFL 529
M14 = system: M14
M19-MEL = system: M19-MEL
MCF7 = system: MCF7
MDA-MB-231 = system: MDA-MB-231
MDA-MB-435 = system: MDA-MB-435
MDA-N = system: MDA-N
MOLT-4 = system: MOLT-4
Malme-3M = system: Malme-3M
NCI-H226 = system: NCI-H226
NCI-H23 = system: NCI-H23
NCI-H460 = system: NCI-H460
NCI-H522 = system: NCI-H522
NCI/ADR-RES = system: NCI/ADR-RES
OVCAR-3 = system: OVCAR-3
OVCAR-4 = system: OVCAR-4
OVCAR-5 = system: OVCAR-5
OVCAR-8 = system: OVCAR-8
PC-3 = system: PC-3
RPMI-8226 = system: RPMI-8226
RXF 393 = system: RXF 393
SF-268 = system: SF-268
SF-295 = system: SF-295
SF-539 = system: SF-539
SK-MEL-28 = system: SK-MEL-28
SK-MEL-2 = system: SK-MEL-2
SK-MEL-5 = system: SK-MEL-5
SK-OV-3 = system: SK-OV-3
SN12C = system: SN12C
SNB-19 = system: SNB-19
SNB-75 = system: SNB-75
SNB-78 = system: SNB-78
SR = system: SR
SW-620 = system: SW-620
T47D = system: T47D
TK-10 = system: TK-10
U-251 = system: U-251
UACC-257 = system: UACC-257
UACC-62 = system: UACC-62
UO-31 = system: UO-31
XF498 = system: XF498

CCN(CC)CCCNc1ccc2ncn3c4ccc(O)cc4c(=O)c1c23
GI50 (786-0): 643 nM (active) | GI50 (A498): 4450 nM (inactive) | GI50 (A549): 231 nM (active) | GI50 (ACHN): 272 nM (active) | GI50 (CAKI-1): 365 nM (active) | GI50 (CCRF-CEM): 166 nM (active) | GI50 (COLO 205): 908 nM (active) | GI50 (DLD-1): 1240 nM (inactive) | GI50 (DMS-114): 3370 nM (inactive) | GI50 (DMS-273): 553 nM (active) | GI50 (DU-145): 1420 nM (inactive) | GI50 (EKVX): 7410 nM (inactive) | GI50 (HCC 2998): 2150 nM (inactive) | GI50 (HCT-116): 441 nM (active) | GI50 (HCT-15): 2710 nM | GI50 (HOP-18): 18600 nM (inactive) | GI50 (HOP-62): 989 nM (active) | GI50 (HOP-92): 718 nM (active) | GI50 (HT-29): 649 nM (active) | GI50 (Hs-578T): 390 nM (active) | GI50 (IGROV-1): 1390 nM (inactive) | GI50 (K562): 1040 nM (active) | GI50 (KM-20L2): 2850 nM (inactive) | GI50 (KM12): 3850 nM (inactive) | GI50 (LOX IMVI): 392 nM (active) | GI50 (LXFL 529): 2650 nM (inactive) | GI50 (M14): 3300 nM (inactive) | GI50 (M19-MEL): 5830 nM (inactive) | GI50 (MCF7): 687 nM (active) | GI50 (MDA-MB-231): 1880 nM (inactive) | GI50 (MDA-MB-435): > 10000 nM (inactive) | GI50 (MDA-N): 6080 nM (inactive) | GI50 (MOLT-4): 41.1 nM (active) | GI50 (Malme-3M): 4780 nM (inactive) | GI50 (NCI-H226): 214 nM (active) | GI50 (NCI-H23): 2190 nM (inactive) | GI50 (NCI-H460): 105 nM (active) | GI50 (NCI-H522): 851 nM (active) | GI50 (NCI/ADR-RES): > 10000 nM (inactive) | GI50 (OVCAR-3): 8690 nM (inactive) | GI50 (OVCAR-4): 1010 nM (active) | GI50 (OVCAR-5): 1980 nM (inactive) | GI50 (OVCAR-8): 467 nM (active) | GI50 (PC-3): 1410 nM (inactive) | GI50 (RPMI-8226): 2060 nM (inactive) | GI50 (RXF 393): 140 nM (active) | GI50 (SF-268): 1660 nM (inactive) | GI50 (SF-295): 1630 nM (inactive) | GI50 (SF-539): 2900 nM (inactive) | GI50 (SK-MEL-28): 12400 nM (inactive) | GI50 (SK-MEL-2): 3700 nM (inactive) | GI50 (SK-MEL-5): 3410 nM (inactive) | GI50 (SK-OV-3): 527 nM (active) | GI50 (SN12C): 637 nM (active) | GI50 (SNB-19): 2210 nM (inactive) | GI50 (SNB-75): 871 nM (active) | GI50 (SNB-78): 8650 nM (inactive) | GI50 (SR): 171 nM (active) | GI50 (SW-620): 578 nM (active) | GI50 (T47D): > 10000 nM (inactive) | GI50 (TK-10): 1690 nM (inactive) | GI50 (U-251): 1660 nM (inactive) | GI50 (UACC-257): 11500 nM (inactive) | GI50 (UACC-62): 3210 nM (inactive) | GI50 (UO-31): 2160 nM (inactive) | GI50 (XF498): 239 nM (active)
